Measured values: patent US11858941B2, “Heterocyclic and heteroaryl compounds for treating Huntington's disease” (PTC THERAPEUTICS, INC., priority 2018, dated 2024)
pIC50: −log10 of the molar value.

Test system: Endogenous Huntingtin Protein
Test: Endogenous Huntingtin Protein Assay (Meso Scale Discovery ELISA-based electrochemiluminescence)
Assay type: cell-based
Details: MSD plates coated with MW1 (expanded polyglutamine) or MAB2166 capture antibody; lysates
How it was run: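 MSD electrochemiluminescence sandwich ELISA: MW1 (expanded polyQ) or MAB2166 capture antibody at 1 μg/mL, samples incubated overnight at 4° C. Detection with rabbit monoclonal #5656S then SULFO-TAG anti-rabbit antibody, each 0.25 μg/mL for 1 h at room temperature.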

SMILES	pIC50
CC1(C)CC(n2nnc3cc(-c4ccc(-c5ncc(C#N)s5)cc4O)nnc32)CC(C)(C)N1 [Cpd 110, 2-{3-hydroxy-4-[3-(2,2,6,6-tetramethylpiperidin-4-yl)-3H-[1,2,3]triazolo[4,5-c]pyridazin-6-yl]phenyl}-1,3-thiazole-5-carbonitrile]	6.30 to 7.00
CC1(C)CC(n2nnc3cc(-c4ccc(-c5c[nH]nc5C(F)(F)F)cc4O)nnc32)CC(C)(C)N1 [Cpd 139, 2-[3-(2,2,6,6-tetramethylpiperidin-4-yl)-3H-[1,2,3]triazolo[4,5-c]pyridazin-6-yl]-5-[3-(trifluoromethyl)-1H-pyrazol-4-yl]phenol]	6.30 to 7.00
CC1(C)CC(n2ccc3cc(-c4ccc(-c5cn[nH]c5)cc4O)nnc32)CC(C)(C)N1 [Cpd 26, 5-(1H-pyrazol-4-yl)-2-[7-(2,2,6,6-tetramethylpiperidin-4-yl)-7H-pyrrolo[2,3-c]pyridazin-3-yl]phenol]	≥ 7.00
Cn1cc(-c2ccc(-c3cc4nnn(C5CC(C)(C)NC(C)(C)C5)c4nn3)c(O)c2)c(C#N)n1 [Cpd 132, 4-{3-hydroxy-4-[3-(2,2,6,6-tetramethylpiperidin-4-yl)-3H-[1,2,3]triazolo[4,5-c]pyridazin-6-yl]phenyl}-1-methyl-1H-pyrazole-3-carbonitrile]	6.00 to 6.30
CC1(C)CC(n2nnc3cc(-c4cc(Cl)c(-c5cn[nH]c5)cc4O)nnc32)CC(C)(C)N1 [Cpd 83, 4-chloro-5-(1H-pyrazol-4-yl)-2-[3-(2,2,6,6-tetramethylpiperidin-4-yl)-3H-[1,2,3]triazolo[4,5-c]pyridazin-6-yl]phenol]	≥ 7.00
COc1n[nH]cc1-c1ccc(-c2cc3nnn(C4CC(C)(C)NC(C)(C)C4)c3nn2)c(O)c1 [Cpd 131, 5-(3-methoxy-1H-pyrazol-4-yl)-2-[3-(2,2,6,6-tetramethylpiperidin-4-yl)-3H-[1,2,3]triazolo[4,5-c]pyridazin-6-yl]phenol]	≥ 7.00
Cc1ccn(-c2ccc(-c3cc4nnn(C5CC(C)(C)NC(C)(C)C5)c4nn3)c(O)c2)n1 [Cpd 157, 5-(3-methyl-1H-pyrazol-1-yl)-2-(3-(2,2,6,6-tetramethylpiperidin-4-yl)-3H-[1,2,3]triazolo[4,5-c]pyridazin-6-yl)phenol]	6.30 to 7.00
Oc1cc(-c2cn[nH]c2)ccc1-c1cc2[nH]cc(C3CC4COCC(C3)N4)c2nn1 (centres unmarked) [Cpd 30, 2-[7-(3-oxa-9-azabicyclo[3.3.1]non-7-yl)-5H-pyrrolo[3,2-c]pyridazin-3-yl]-5-(1H-pyrazol-4-yl)phenol]	6.00 to 6.30
CC1(C)CC(n2nnc3cc(-c4ccc(-c5ccc(O)cn5)cc4O)nnc32)CC(C)(C)N1 [Cpd 67, 6-{3-hydroxy-4-[3-(2,2,6,6-tetramethylpiperidin-4-yl)-3H-[1,2,3]triazolo[4,5-c]pyridazin-6-yl]phenyl}pyridin-3-ol]	≥ 7.00
CC1(C)CC(n2nnc3cc(-c4ccc(-c5cncnc5)cc4O)nnc32)CC(C)(C)N1 [Cpd 78, 5-(pyrimidin-5-yl)-2-[3-(2,2,6,6-tetramethylpiperidin-4-yl)-3H-[1,2,3]triazolo[4,5-c]pyridazin-6-yl]phenol]	5.52 to 6.00
CC1(C)CC(n2nnc3cc(-c4ccc(-c5cc(=O)[nH]cn5)cc4O)nnc32)CC(C)(C)N1 [Cpd 128, 6-{3-hydroxy-4-[3-(2,2,6,6-tetramethylpiperidin-4-yl)-3H-[1,2,3]triazolo[4,5-c]pyridazin-6-yl]phenyl}pyrimidin-4(3H)-one]	≥ 7.00
COc1cc(-c2ccc(-c3cc4nnn(C5CC(C)(C)NC(C)(C)C5)c4nn3)c(O)c2)ccn1 [Cpd 77, 5-(2-methoxypyridin-4-yl)-2-[3-(2,2,6,6-tetramethylpiperidin-4-yl)-3H-[1,2,3]triazolo[4,5-c]pyridazin-6-yl]phenol]	≥ 7.00
CC1(C)CC(n2nnc3cc(-c4ccc(-c5cnoc5)cc4O)nnc32)CC(C)(C)N1 [Cpd 120, 5-(1,2-oxazol-4-yl)-2-[3-(2,2,6,6-tetramethylpiperidin-4-yl)-3H-[1,2,3]triazolo[4,5-c]pyridazin-6-yl]phenol]	6.30 to 7.00
CNc1nc2cc(-c3ccc(-c4cn[nH]c4)cc3O)nnc2n1C1CC(C)(C)NC(C)(C)C1 [Cpd 42, 2-[6-(methylamino)-7-(2,2,6,6-tetramethylpiperidin-4-yl)-7H-imidazo[4,5-c]pyridazin-3-yl]-5-(1H-pyrazol-4-yl)phenol]	6.30 to 7.00
CC1(C)CC(n2nnc3cc(-c4ccc(-c5c[nH]nc5Cl)cc4O)nnc32)CC(C)(C)N1 [Cpd 129, 5-(3-chloro-1H-pyrazol-4-yl)-2-[3-(2,2,6,6-tetramethylpiperidin-4-yl)-3H-[1,2,3]triazolo[4,5-c]pyridazin-6-yl]phenol]	≥ 7.00
CC1(C)CC(n2nnc3cc(-c4ccc(-n5cnnc5)cc4O)nnc32)CC(C)(C)N1 [Cpd 64, 2-[3-(2,2,6,6-tetramethylpiperidin-4-yl)-3H-[1,2,3]triazolo[4,5-c]pyridazin-6-yl]-5-(4H-1,2,4-triazol-4-yl)phenol]	5.52 to 6.00

SMILES	pIC50
CC1(C)CC(n2nnc3cc(-c4ccc(-c5cc6nn[nH]c6cn5)cc4O)nnc32)CC(C)(C)N1 [Cpd 146, 2-[3-(2,2,6,6-tetramethylpiperidin-4-yl)-3H-[1,2,3]triazolo[4,5-c]pyridazin-6-yl]-5-(3H-[1,2,3]triazolo[4,5-c]pyridin-6-yl)phenol]	5.52 to 6.00
CC1(C)CC(n2nnc3cc(-c4ccc(-n5nccn5)cc4O)nnc32)CC(C)(C)N1 [Cpd 163, 2-[3-(2,2,6,6-tetramethylpiperidin-4-yl)-3H-[1,2,3]triazolo[4,5-c]pyridazin-6-yl]-5-(2H-1,2,3-triazol-2-yl)phenol]	≥ 7.00
CC1(C)CC(n2nnc3cc(-c4ccc(-c5c[nH]nn5)cc4O)nnc32)CC(C)(C)N1 [Cpd 112, 2-[3-(2,2,6,6-tetramethylpiperidin-4-yl)-3H-[1,2,3]triazolo[4,5-c]pyridazin-6-yl]-5-(1H-1,2,3-triazol-4-yl)phenol]	≥ 7.00
Cc1nc2cc(-c3ccc(-c4cn[nH]c4)cc3O)nnc2n1C1CC(C)(C)NC(C)(C)C1 [Cpd 5, 2-[6-methyl-7-(2,2,6,6-tetramethylpiperidin-4-yl)-7H-imidazo[4,5-c]pyridazin-3-yl]-5-(1H-pyrazol-4-yl)phenol]	≥ 7.00
Cn1nccc1-c1ccc(-c2cc3nnn(C4CC(C)(C)NC(C)(C)C4)c3nn2)c(O)c1 [Cpd 50, 5-(1-methyl-1H-pyrazol-5-yl)-2-[3-(2,2,6,6-tetramethylpiperidin-4-yl)-3H-[1,2,3]triazolo[4,5-c]pyridazin-6-yl]phenol]	6.30 to 7.00
Cc1nc(F)c(-c2ccc(-c3cc4nnn(C5CC(C)(C)NC(C)(C)C5)c4nn3)c(O)c2)s1 [Cpd 154, 5-(4-fluoro-2-methyl-1,3-thiazol-5-yl)-2-[3-(2,2,6,6-tetramethylpiperidin-4-yl)-3H-[1,2,3]triazolo[4,5-c]pyridazin-6-yl]phenol]	≥ 7.00
CCn1ncc(-c2ccc(-c3cc4nnn(C5CC(C)(C)NC(C)(C)C5)c4nn3)c(O)c2)c1F [Cpd 122, 5-(1-ethyl-5-fluoro-1H-pyrazol-4-yl)-2-[3-(2,2,6,6-tetramethylpiperidin-4-yl)-3H-[1,2,3]triazolo[4,5-c]pyridazin-6-yl]phenol]	5.52 to 6.00
CC1(C)CC(n2nnc3cc(-c4ccc(-c5ccn6nncc6c5)cc4O)nnc32)CC(C)(C)N1 [Cpd 125, 2-[3-(2,2,6,6-tetramethylpiperidin-4-yl)-3H-[1,2,3]triazolo[4,5-c]pyridazin-6-yl]-5-([1,2,3]triazolo[1,5-a]pyridin-5-yl)phenol]	6.30 to 7.00
CC1(C)CC(n2nnc3cc(-c4cc5c(cc4O)/C(=N/O)CC5)nnc32)CC(C)(C)N1 [Cpd 82, (3E)-3-(hydroxyimino)-6-[3-(2,2,6,6-tetramethylpiperidin-4-yl)-3H-[1,2,3]triazolo[4,5-c]pyridazin-6-yl]-2,3-dihydro-1H-inden-5-ol]	6.30 to 7.00
CC1(C)CC(n2nnc3cc(-c4c(O)cc(-c5cn[nH]c5)cc4F)nnc32)CC(C)(C)N1 [Cpd 59, 3-fluoro-5-(1H-pyrazol-4-yl)-2-[3-(2,2,6,6-tetramethylpiperidin-4-yl)-3H-[1,2,3]triazolo[4,5-c]pyridazin-6-yl]phenol]	≥ 7.00
Oc1cc(-c2cn[nH]c2)ccc1-c1cc2[nH]cc(C3=CC4CCC(C3)N4)c2nn1 (centres unmarked) [Cpd 27, 2-[7-(8-azabicyclo[3.2.1]oct-2-en-3-yl)-5H-pyrrolo[3,2-c]pyridazin-3-yl]-5-(1H-pyrazol-4-yl)phenol]	≥ 7.00
Cn1cc(-c2ccc(-c3cc4nnn(C5CC(C)(C)NC(C)(C)C5)c4nn3)c(O)c2)c(Cl)n1 [Cpd 127, 5-(3-chloro-1-methyl-1H-pyrazol-4-yl)-2-[3-(2,2,6,6-tetramethylpiperidin-4-yl)-3H-[1,2,3]triazolo[4,5-c]pyridazin-6-yl]phenol]	≥ 7.00
CC1(C)CC(n2nnc3cc(-c4cc(O)c(-c5cn[nH]c5)cc4F)nnc32)CC(C)(C)N1 [Cpd 33, 4-fluoro-2-(1H-pyrazol-4-yl)-5-[3-(2,2,6,6-tetramethylpiperidin-4-yl)-3H-[1,2,3]triazolo[4,5-c]pyridazin-6-yl]phenol]	6.00 to 6.30
Oc1cc(-c2cn[nH]c2)ccc1-c1cc2[nH]cc(C3CC4CCC(C3)N4)c2nn1 (centres unmarked) [Cpd 29, 2-[7-(8-azabicyclo[3.2.1]oct-3-yl)-5H-pyrrolo[3,2-c]pyridazin-3-yl]-5-(1H-pyrazol-4-yl)phenol]	≥ 7.00
CC1(C)C=C(n2ccc3nc(-c4ccc(-c5cn[nH]c5)cc4O)cnc32)CC(C)(C)N1 [Cpd 8, 5-(1H-pyrazol-4-yl)-2-[5-(2,2,6,6-tetramethyl-1,2,3,6-tetrahydropyridin-4-yl)-5H-pyrrolo[2,3-b]pyrazin-2-yl]phenol]	5.52 to 6.00
CC1(C)CC(n2nnc3cc(-c4ccc(-c5ccc6[nH]nnc6n5)cc4O)nnc32)CC(C)(C)N1 [Cpd 147, 2-[3-(2,2,6,6-tetramethylpiperidin-4-yl)-3H-[1,2,3]triazolo[4,5-c]pyridazin-6-yl]-5-(1H-[1,2,3]triazolo[4,5-b]pyridin-5-yl)phenol]	5.52 to 6.00
